Literature values as cited in patent US11865125B2, “APKC inhibitors and methods of treating a neurodegenerative disease or disorder” (UNIVERSITY OF SOUTH FLORIDA, priority 2016, dated 2024).

Molecular target: T1, aPKC (Mus musculus, UniProt Q62074)
T1 construct: previously seen in isolated human hepatocytes, mouse adipocytes and recombinant PKC-λ/ι [8,16]; endogenous in cells; host or cells: isolated mouse adipocytes
T1 sequence (Q62074 2-595 limits assumed): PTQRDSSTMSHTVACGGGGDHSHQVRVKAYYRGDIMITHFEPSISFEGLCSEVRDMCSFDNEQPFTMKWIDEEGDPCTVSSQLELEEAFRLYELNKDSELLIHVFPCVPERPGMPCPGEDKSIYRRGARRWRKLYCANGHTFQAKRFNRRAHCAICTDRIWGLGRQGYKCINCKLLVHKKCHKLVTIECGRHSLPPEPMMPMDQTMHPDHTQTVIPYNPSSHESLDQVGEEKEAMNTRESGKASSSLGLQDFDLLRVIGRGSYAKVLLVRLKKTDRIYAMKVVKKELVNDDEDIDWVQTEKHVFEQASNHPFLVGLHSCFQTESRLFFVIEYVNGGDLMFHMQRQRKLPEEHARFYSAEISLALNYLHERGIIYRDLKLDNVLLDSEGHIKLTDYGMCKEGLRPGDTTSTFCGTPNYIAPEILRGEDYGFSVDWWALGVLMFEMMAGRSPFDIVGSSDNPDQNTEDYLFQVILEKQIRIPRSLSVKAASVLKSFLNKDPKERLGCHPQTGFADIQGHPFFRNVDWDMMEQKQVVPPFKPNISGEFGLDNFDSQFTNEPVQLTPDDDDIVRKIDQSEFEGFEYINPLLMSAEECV
Conditions: previously seen, stated as similar; read-out: IC50, inhibition of aPKC activity in mouse adipocytes; cited from earlier work

NC(=O)c1ncn([C@@H]2C[C@H](COP(=O)(O)O)[C@@H](O)[C@H]2O)c1N [ICAPP]
IC50: 1 to 10 nM
